Results published in PubChem BioAssay AID1963448 (Molecular Pharmacology Branch, DTP, NCI, 2024).

Test system: 616215-338-R-J1-PDC complex spheroid growth, % test/control
Experiment: Anticancer human tumor 616215-338-R-J1-PDC patient-derived colon adenocarcinoma cell line growth inhibition [Asc]
Conditions: for IC50: curve of first compound; for viability, T/C: stronger effect = lower value
Outline: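 Stromal components (HUVEC and hMSC) are co-assembled with the cancer cells into multicellular spheroids. Drugs are then added singly or paired, at concentrations falling by half-log increments from a clinically achievable maximum, capped at 10 microM without known Cmax.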
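Note: spheroids exposed to agents for seven days before readout.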
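Throughout, for viability, T/C: 100% = DMSO vehicle control viability.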

Cc1nc(N2CCC3(CC2)COC(C)C3N)c(CO)nc1Sc1ccnc(N)c1Cl (configuration not stated) + CCN1C(C(=O)NC23CCC(C(=O)O)(CC2)CC3)C(c2cccc(Cl)c2F)C2(C(=O)Nc3cc(Cl)ccc32)C12CCCCC2
IC50 (second compound 0.03 µM): > 3 µM
IC50 (second compound 0.0949 µM): > 3 µM
IC50 (second compound 0.3 µM): 0.303 µM
IC50 (second compound 0.949 µM): 0.338 µM
IC50 (second compound 3 µM): 0.0403 µM
viability, T/C (second compound 0.03 µM, first compound 0.00949 µM): 99.4%
viability, T/C (second compound 0.03 µM, first compound 0.03 µM): 102%
viability, T/C (second compound 0.03 µM, first compound 0.0949 µM): 98.4%
viability, T/C (second compound 0.03 µM, first compound 0.3 µM): 91.8%
viability, T/C (second compound 0.03 µM, first compound 0.949 µM): 86.3%
viability, T/C (second compound 0.03 µM, first compound 3 µM): 74.4%
viability, T/C (second compound 0.0949 µM, first compound 0.00949 µM): 101%
viability, T/C (second compound 0.0949 µM, first compound 0.03 µM): 89.2%
viability, T/C (second compound 0.0949 µM, first compound 0.0949 µM): 84.1%
viability, T/C (second compound 0.0949 µM, first compound 0.3 µM): 87.2%
viability, T/C (second compound 0.0949 µM, first compound 0.949 µM): 80.5%
viability, T/C (second compound 0.0949 µM, first compound 3 µM): 64.7%
viability, T/C (second compound 0.3 µM, first compound 0.00949 µM): 69.8%
viability, T/C (second compound 0.3 µM, first compound 0.03 µM): 65.6%
viability, T/C (second compound 0.3 µM, first compound 0.0949 µM): 65.1%
viability, T/C (second compound 0.3 µM, first compound 0.3 µM): 49.4%
viability, T/C (second compound 0.3 µM, first compound 0.949 µM): 39.2%
viability, T/C (second compound 0.3 µM, first compound 3 µM): 35%
viability, T/C (second compound 0.949 µM, first compound 0.00949 µM): 65.9%
viability, T/C (second compound 0.949 µM, first compound 0.03 µM): 65%
viability, T/C (second compound 0.949 µM, first compound 0.0949 µM): 66.6%
viability, T/C (second compound 0.949 µM, first compound 0.3 µM): 48.3%
viability, T/C (second compound 0.949 µM, first compound 0.949 µM): 37.7%
viability, T/C (second compound 0.949 µM, first compound 3 µM): 24.8%
viability, T/C (second compound 3 µM, first compound 0.00949 µM): 53.3%
viability, T/C (second compound 3 µM, first compound 0.03 µM): 49.2%
viability, T/C (second compound 3 µM, first compound 0.0949 µM): 47.8%
viability, T/C (second compound 3 µM, first compound 0.3 µM): 38.8%
viability, T/C (second compound 3 µM, first compound 0.949 µM): 23.9%
viability, T/C (second compound 3 µM, first compound 3 µM): 11.6%

O=C(c1cc(Cc2n[nH]c(=O)c3ccccc23)ccc1F)N1CCN(C(=O)C2CC2)CC1 + CNC(C)C(=O)NC1CN(S(=O)(=O)c2cccc(S(=O)(=O)N3CCC4CCC(C(=O)NC(c5ccccc5)c5ccccc5)N4C(=O)C(NC(=O)C(C)NC)C3)c2)CCC2CCC(C(=O)NC(c3ccccc3)c3ccccc3)N2C1=O
IC50 (second compound 0.00316 µM): < 0.0316 µM
IC50 (second compound 0.01 µM): > 10 µM
IC50 (second compound 0.0316 µM): > 10 µM
IC50 (second compound 0.1 µM): > 10 µM
IC50 (second compound 0.316 µM): > 10 µM
IC50 (second compound 1 µM): > 10 µM
viability, T/C (second compound 0.00316 µM, first compound 0.0316 µM): 8.47%
viability, T/C (second compound 0.00316 µM, first compound 0.1 µM): 8.86%
viability, T/C (second compound 0.00316 µM, first compound 0.316 µM): 12.9%
viability, T/C (second compound 0.00316 µM, first compound 1 µM): 10.3%
viability, T/C (second compound 0.00316 µM, first compound 3.16 µM): 8.76%
viability, T/C (second compound 0.00316 µM, first compound 10 µM): 7.09%
viability, T/C (second compound 0.01 µM, first compound 0.0316 µM): 93.3%
viability, T/C (second compound 0.01 µM, first compound 0.1 µM): 88.3%
viability, T/C (second compound 0.01 µM, first compound 0.316 µM): 97.2%
viability, T/C (second compound 0.01 µM, first compound 1 µM): 95.6%
viability, T/C (second compound 0.01 µM, first compound 3.16 µM): 80.8%
viability, T/C (second compound 0.01 µM, first compound 10 µM): 76.9%
viability, T/C (second compound 0.0316 µM, first compound 0.0316 µM): 103%
viability, T/C (second compound 0.0316 µM, first compound 0.1 µM): 91%
viability, T/C (second compound 0.0316 µM, first compound 0.316 µM): 102%
viability, T/C (second compound 0.0316 µM, first compound 1 µM): 103%
viability, T/C (second compound 0.0316 µM, first compound 3.16 µM): 94.9%
viability, T/C (second compound 0.0316 µM, first compound 10 µM): 78.1%
viability, T/C (second compound 0.1 µM, first compound 0.0316 µM): 100%
viability, T/C (second compound 0.1 µM, first compound 0.1 µM): 101%
viability, T/C (second compound 0.1 µM, first compound 0.316 µM): 94.2%
viability, T/C (second compound 0.1 µM, first compound 1 µM): 95.5%
viability, T/C (second compound 0.1 µM, first compound 3.16 µM): 95.2%
viability, T/C (second compound 0.1 µM, first compound 10 µM): 78%
viability, T/C (second compound 0.316 µM, first compound 0.0316 µM): 104%
viability, T/C (second compound 0.316 µM, first compound 0.1 µM): 98%
viability, T/C (second compound 0.316 µM, first compound 0.316 µM): 105%
viability, T/C (second compound 0.316 µM, first compound 1 µM): 106%
viability, T/C (second compound 0.316 µM, first compound 3.16 µM): 100%
viability, T/C (second compound 0.316 µM, first compound 10 µM): 69.9%
viability, T/C (second compound 1 µM, first compound 0.0316 µM): 102%
viability, T/C (second compound 1 µM, first compound 0.1 µM): 102%
viability, T/C (second compound 1 µM, first compound 0.316 µM): 96.2%
viability, T/C (second compound 1 µM, first compound 1 µM): 97.1%
viability, T/C (second compound 1 µM, first compound 3.16 µM): 94.1%
viability, T/C (second compound 1 µM, first compound 10 µM): 80.9%
